Assay results as given in ChEMBL document CHEMBL4033720, “Discovery of novel cyclic peptide inhibitors of dengue virus NS2B-NS3 protease with antiviral activity” (Bioorg Med Chem Lett, 2017).
Where a SMILES comes first, the peptide text is derived from it.

Legend:
[1] = Inhibition of dengue virus 2 NS2B-NS3 protease pre-incubated for 10 mins before Boc-Gly-Arg-Arg-peptidyl-4-methylcoumaryl-7-amide substrate addition and measured after 2 hrs by fluorescence based assay; set-up: species or system dengue virus type 2
[2] = Toxicity in BHK21 cells assessed a reduction in cell viability after 4 days by resazurin dye based method; set-up: species or system Mesocricetus auratus, BHK-21; settings: hamster
dengue virus type 2 = test: Antiviral activity against dengue virus 2 infected in BHK21 cells assessed as inhibition of virus-induced cytopathic effect after 4 days by resazurin dye based method; type: functional, cell-based; settings: Dengue virus, BHK-21, 96 h; read-out: EC50

SMILES | IC50 [1] [µM] | CC50 at 96 h [2] [µM] | EC50 (dengue virus type 2) [µM]
C[C@@H]1NC(=O)[C@H](CS)NC(=O)[C@H](c2ccccc2)NC(=O)[C@H](CO)NC(=O)[C@H](CCCCN)NC(=O)[C@H](CCCNC(=N)N)NC(=O)[C@H](CCCCN)NC(=O)CNC1=O (HELM PEPTIDE1{A.G.K.R.K.S.[Phg].C}$PEPTIDE1,PEPTIDE1,1:R1-8:R2$$$V2.0) | 22.1 | – | –
C[C@@H]1NC(=O)[C@H](CCc2ccccc2)NC(=O)[C@H](CO)NC(=O)[C@H](CCCCN)NC(=O)[C@H](CCCNC(=N)N)NC(=O)[C@H](CCCCN)NC(=O)CNC(=O)[C@H](c2ccccc2)NC1=O | 22.2 | – | –
C[C@@H]1NC(=O)[C@H](CS)NC(=O)CNC(=O)[C@H](C)NC(=O)[C@H](CCCCN)NC(=O)[C@H](CCCNC(=N)N)NC(=O)[C@H](CCCCN)NC(=O)CNC1=O (HELM PEPTIDE1{A.G.C.A.G.K.R.K}$PEPTIDE1,PEPTIDE1,1:R1-8:R2$$$V2.0) | > 200 | – | –
C[C@@H]1NC(=O)[C@H](CS)NC(=O)[C@H](Cc2ccccc2)NC(=O)[C@H](CO)NC(=O)[C@H](CCCCN)NC(=O)[C@H](CCCNC(=N)N)NC(=O)[C@H](CCCCN)NC(=O)CNC1=O (HELM PEPTIDE1{A.G.K.R.K.S.F.C}$PEPTIDE1,PEPTIDE1,1:R1-8:R2$$$V2.0) | 39.3 | – | –
C[C@@H]1NC(=O)[C@H](CCc2ccccc2)NC(=O)[C@H](CO)NC(=O)[C@H](CCCCN)NC(=O)[C@H](CCCNC(=N)N)NC(=O)[C@H](CCCCN)NC(=O)CNC(=O)[C@H](Cc2ccccc2)NC1=O | 19.8 | – | –
C[C@@H]1NC(=O)[C@@H](Cc2ccccc2)NC(=O)[C@H](CO)NC(=O)[C@H](CCc2ccccc2)NC(=O)[C@H](CO)NC(=O)[C@H](CCCCN)NC(=O)[C@H](CCCNC(=N)N)NC(=O)[C@H](CCCCN)NC1=O | 28.5 | – | –
C[C@@H]1NC(=O)[C@H](CS)NC(=O)CNC(=O)[C@H](CO)NC(=O)[C@H](CCCCN)NC(=O)[C@H](C)NC(=O)[C@H](CCCCN)NC(=O)CNC1=O (HELM PEPTIDE1{A.G.K.A.K.S.G.C}$PEPTIDE1,PEPTIDE1,1:R1-8:R2$$$V2.0) | > 200 | – | –
N=C(N)NCCC[C@@H]1NC(=O)[C@H](CCCCN)NC(=O)[C@@H]2CCCN2C(=O)[C@@H](Cc2ccccc2)NC(=O)[C@H](CO)NC(=O)[C@H](CCc2ccccc2)NC(=O)[C@H](CO)NC(=O)[C@H](CCCCN)NC1=O | 52 | – | –
C[C@@H]1NC(=O)[C@H](CCc2ccccc2)NC(=O)[C@H](CO)NC(=O)[C@H](CCCCN)NC(=O)[C@H](CCCNC(=N)N)NC(=O)[C@H](CCCCN)NC(=O)CNC(=O)[C@H](CCc2ccccc2)NC1=O | 25.6 | – | –
C[C@@H]1NC(=O)[C@H](CS)NC(=O)CNC(=O)[C@H](CO)NC(=O)[C@H](C)NC(=O)[C@H](CCCNC(=N)N)NC(=O)[C@H](CCCCN)NC(=O)CNC1=O (HELM PEPTIDE1{A.G.K.R.A.S.G.C}$PEPTIDE1,PEPTIDE1,1:R1-8:R2$$$V2.0) | > 200 | – | –
C[C@@H]1NC(=O)[C@H](CS)NC(=O)CNC(=O)[C@H](CO)NC(=O)[C@H](CCCCN)NC(=O)[C@H](CCCNC(=N)N)NC(=O)[C@H](CCCCN)NC(=O)CNC1=O (HELM PEPTIDE1{A.G.K.R.K.S.G.C}$PEPTIDE1,PEPTIDE1,1:R1-8:R2$$$V2.0) | 114 | – | –
C[C@@H]1NC(=O)[C@H](C)NC(=O)[C@H](CCc2ccccc2)NC(=O)[C@H](CO)NC(=O)[C@H](CCCCN)NC(=O)[C@H](CCCNC(=N)N)NC(=O)[C@H](CCCCN)NC(=O)CNC1=O (HELM PEPTIDE1{A.A.G.K.R.K.S.[O=C([C@H](CCc1ccccc1)N[*:1])[*:2]]}$PEPTIDE1,PEPTIDE1,1:R1-8:R2$$$V2.0) | 18.4 | – | –
C[C@@H]1NC(=O)CNC(=O)[C@H](CO)NC(=O)[C@H](CCCCN)NC(=O)[C@H](CCCNC(=N)N)NC(=O)[C@H](CCCCN)NC(=O)CNC(=O)[C@H](C)NC1=O (HELM PEPTIDE1{A.A.G.K.R.K.S.G}$PEPTIDE1,PEPTIDE1,1:R1-8:R2$$$V2.0) | 57.4 | – | –
C[C@@H]1NC(=O)CNC(=O)[C@H](C)NC(=O)[C@H](CS)NC(=O)CNC(=O)[C@H](CO)NC(=O)[C@H](CCCCN)NC(=O)[C@H](CCCNC(=N)N)NC1=O (HELM PEPTIDE1{A.G.A.R.K.S.G.C}$PEPTIDE1,PEPTIDE1,1:R1-8:R2$$$V2.0) | > 200 | – | –
C[C@@H]1NC(=O)[C@H](CS)NC(=O)[C@@H](CCc2ccccc2)NC(=O)[C@H](CO)NC(=O)[C@H](CCCCN)NC(=O)[C@H](CCCNC(=N)N)NC(=O)[C@H](CCCCN)NC(=O)CNC1=O | 38.7 | – | –

These reach a lower IC50 [1]. Values come first.

IC50 [1] [µM] | SMILES | CC50 at 96 h [2] [µM] | EC50 (dengue virus type 2) [µM]
16.2 | C[C@@H]1NC(=O)[C@H](CCc2ccccc2)NC(=O)[C@H](CO)NC(=O)[C@H](CCCCN)NC(=O)[C@H](CCCNC(=N)N)NC(=O)[C@H](CCCCN)NC(=O)CNC(=O)[C@@H](CCc2ccccc2)NC1=O | – | –
15.1 | C[C@@H]1NC(=O)[C@H](CCc2ccccc2)NC(=O)[C@H](CO)NC(=O)[C@H](CCCCN)NC(=O)[C@H](CCCNC(=N)N)NC(=O)[C@H](CCCCN)NC(=O)CNC(=O)[C@@H](c2ccccc2)NC1=O | – | –
9.2 | C[C@@H]1NC(=O)[C@H](CS)NC(=O)[C@H](CCc2ccccc2)NC(=O)[C@H](CO)NC(=O)[C@H](CCCCN)NC(=O)[C@H](CCCNC(=N)N)NC(=O)[C@H](CCCCN)NC(=O)CNC1=O | – | –
7.6 | C[C@@H]1NC(=O)[C@H](CCc2ccccc2)NC(=O)[C@H](CO)NC(=O)[C@H](CCCCN)NC(=O)[C@H](CCCNC(=N)N)NC(=O)[C@H](CCCCN)NC(=O)CNC(=O)[C@@H](Cc2ccccc2)NC1=O | – | –
5 | N=C(N)NCCC[C@@H]1NC(=O)[C@H](CCCCN)NC(=O)CNC(=O)[C@@H](Cc2ccccc2)NC(=O)[C@H](CO)NC(=O)[C@H](CCc2ccccc2)NC(=O)[C@H](CO)NC(=O)[C@H](CCCCN)NC1=O | – | –
3.8 | N=C(N)NCCC[C@@H]1NC(=O)[C@H](CCCNC(=N)N)NC(=O)[C@H]2CCCN2C(=O)[C@@H](Cc2ccccc2)NC(=O)[C@H](CO)NC(=O)[C@H](Cc2ccc(-c3ccccc3)cc2)NC(=O)[C@H](CO)NC(=O)[C@H](CCCCN)NC1=O | > 400 | 108
3.8 | N=C(N)NCCC[C@@H]1NC(=O)[C@H](CCCCN)NC(=O)[C@H]2CCCN2C(=O)[C@@H](Cc2ccccc2)NC(=O)[C@H](CO)NC(=O)[C@H](Cc2ccc(-c3ccccc3)cc2)NC(=O)[C@H](CO)NC(=O)[C@H](CCCCN)NC1=O | > 400 | 293
3.7 | N=C(N)NCCC[C@@H]1NC(=O)[C@H](CCCNC(=N)N)NC(=O)[C@@H](CCCNC(=N)N)NC(=O)[C@@H](Cc2ccccc2)NC(=O)[C@H](CO)NC(=O)[C@H](Cc2ccc(-c3ccccc3)cc2)NC(=O)[C@H](CO)NC(=O)[C@H](CCCCN)NC1=O | > 400 | 87.5
3.3 | C[C@H]1NC(=O)[C@@H](Cc2ccccc2)NC(=O)[C@H](CO)NC(=O)[C@H](CCc2ccccc2)NC(=O)[C@H](CO)NC(=O)[C@H](CCCCN)NC(=O)[C@H](CCCNC(=N)N)NC(=O)[C@H](CCCCN)NC1=O | – | –
2.6 | N=C(N)NCCC[C@@H]1NC(=O)[C@H](CCCCN)NC(=O)[C@H]2CCCN2C(=O)[C@@H](Cc2ccccc2)NC(=O)[C@H](CO)NC(=O)[C@H](Cc2ccc3ccccc3c2)NC(=O)[C@H](CO)NC(=O)[C@H](CCCCN)NC1=O | > 400 | 306
1.5 | N=C(N)NCCC[C@@H]1NC(=O)[C@H](CCCNC(=N)N)NC(=O)[C@@H](CCCNC(=N)N)NC(=O)[C@@H](Cc2ccccc2)NC(=O)[C@H](Cc2ccc3ccccc3c2)NC(=O)[C@H](CCc2ccccc2)NC(=O)[C@H](CO)NC(=O)[C@H](CCCCN)NC1=O | 210 | 48.5
